# Earlier results, collected in patent publication US20170165627A1, “MICROENCAPSULATION PROCESS” (ENCAPSYS, LLC, priority 2015, published 2017).
# Settings: @ 25° C.
row,Compound,Solubility in water
1,Polyethylene glycol 200 diacrylate [SR259],40.68 mg/mL
2,polyethylene glycol (600) diacrylate [SR610],Water soluble
3,Polyethylene glycol 400 diacrylate [SR344],Water soluble
4,"C=CC(=O)OCCOCCOCC [SR256, 2-(2-ethoxyethoxy) ethyl acrylate]",25.33 mg/mL

# Settings: temperature at which the initiator has a 10 hour half-life
row,Compound,10 hour ½ life at (temperature)
1,"CCC(C)(C#N)N=NC(C)(C#N)CC (centres unmarked) [Vazo-67, 2,2′-azobis(2-methylbutyronitrile)]",67 °C
2,"N#CC1(N=NC2(C#N)CCCCC2)CCCCC1 [Vazo-88, 1,1′-Azobis(cyclohexanecarbonitrile)]",88 °C
3,"CC(C)(N=NC(C)(C)C(=O)NCCO)C(=O)NCCO [VA-086, 2,2′-Azobis[2-methyl-N-(2-hydroxyethyl)propionamide]]",10 hour ½ life at 86 °C
4,"CC(C)(N=NC(C)(C)C(=N)N)C(=N)N.Cl [Example V-50, 2,2′-azobis(2-amidinopropane) hydrochloride]",½ life at 56 °C
